The nature of data set [1]: Lipid nanoparticle size by dynamic light scattering (Malvern Zetasizer Nano ZS). It counts as physicochemical. The conditions noted are these: LNP: cationic lipid/DSPC/cholesterol/PEG-lipid 50:10:38.5:1.5, hEPO mRNA; Table 3. As for the experimental part:
(§1) Briefly, a cationic lipid provided herein, DSPC, cholesterol, and PEG-lipid were solubilized in ethanol at a molar ratio of 50:10:38.5:1.5, and mRNA were diluted in 10 to 50 mM citrate buffer, pH=4. The LNPs were prepared at a total lipid to mRNA weight ratio of approximately 10:1 to 30:1 by mixing the ethanolic lipid solution with the aqueous mRNA solution at a volume ratio of 1:3 using a microfluidic apparatus, total flow rate ranging from 9-30 mL/min. Ethanol were thereby removed and replaced by DPBS using dialysis. Finally, the lipid nanoparticles were filtered through a 0.2 μm sterile filter.
(§2) Lipid nanoparticle size were determined by dynamic light scattering using a Malvern Zetasizer Nano ZS (Malvern UK) using a 173° backscatter detection mode. The encapsulation efficiency of lipid nanoparticles were determined using a Quant-it Ribogreen RNA quantification assay kit (Thermo Fisher Scientific, UK) according to the manufacturer's instructions.

Data set [2] concerns human erythropoietin (hEPO) mRNA. Kind of data set: Animal study: hEPO expression after tail vein injection of LNPs encapsulating hEPO mRNA (serum ELISA). It counts as in vivo. Particulars: hEPO level, female ICR mice, 0.5 mg/kg, 6 hours post administration, class symbols, Table 3. As for the experimental part: Lipid nanoparticles comprising compounds 1-10 encapsulating human erythropoietin (hEPO) mRNA were systemically administered to 6-8 week old female ICR mice (Xipuer-Bikai, Shanghai) at 0.5 mg/kg dose by tail vein injection and mice blood were sampled at specific time points (e.g., 6 hours) post administration. In addition to the aforementioned tested groups, lipid nanoparticles comprising dilinoleylmethyl-4-dimethylaminobutyrate (DLin-MC3-DMA, usually abbreviated to MC3) encapsulating hEPO mRNA were similarly administered at the same dose to age and gender comparative groups of mice as a positive control.
Mice were euthanized by CO2 overdoses after the last sampling time point. Serum were separated from total blood by centrifugation at 5000 g for 10 minutes at 4° C., snap-frozen and stored at −80° C. for analysis. ELSA assay were carried out using a commercial kit (DEP00, R&D systems) according to manufacturer's instructions.
Characteristics of tested lipid nanoparticles, including hEPO expression levels (μg/ml) measured from the tested group are listed the tables below and plotted in FIG. 2.
In general terms: ELISA stands for enzyme-linked immunosorbent assay.

Data set [3] can be described thus: Encapsulation efficiency of lipid nanoparticles (Quant-it Ribogreen RNA quantification assay). It counts as physicochemical. Particulars: LNP encapsulating hEPO mRNA; Table 3. As for the experimental part:
as §1, §2

The record followed here is patent publication US11472766B2, “Lipid nanoparticle composition” (Suzhou Abogen Biosciences Co., Ltd., priority 2020, dated 2022).

In data set [1], `CCCCCCCCC(CCCCCC)COC(=O)CCCCCN(CCCCCC(=O)OCC(CCCCCC)CCCCCCCC)CCN(CCOC(C)=O)C1CCC1` (stereo not drawn) [Compound 64] showed a polydispersity of 0.181 and a size nm of 84.93 nm. For the same molecule, the “Expression at 6 h (μg/ml)” value in data set [2] was “D (<0.1)”. Also, the “Encapsulation Efficiency” value in data set [3] was 84.1%.

Consider `CCCCCCCCCCCCC(CCCCCC)COC(=O)CCCN(CCCC(=O)OCC(CCCCCC)CCCCCCCCCCCC)CCN(CCO)C1CCC1` (stereo not drawn) [Compound 47], for which, in data set [1], the polydispersity was determined as 0.103 and the size nm is reported as 62.38 nm. Moreover, the “Expression at 6 h (μg/ml)” value in data set [2] is “C (≥0.1 and <1)”. The “Encapsulation Efficiency” value in data set [3] worked out at 95.3%.

In the case of `CCCCCCCCC(CCCCCCCC)COC(=O)CCCCCN(CCCCCC(=O)OCC(CCCCCCCC)CCCCCCCC)CCN(CCCCCC)C1CCC(O)CC1` (stereo not drawn) [Compound 75], in data set [1], the polydispersity turned out to be 0.032 and the size nm is 62.36 nm. Also, in data set [2], the “Expression at 6 h (μg/ml)” value is recorded as “A (≥2)”. In addition, the “Encapsulation Efficiency” value in data set [3] is reported as 94.1%.

Regarding `CCCCCCCCC(CCCCCCCC)COC(=O)CCCCCN(CCCCCC(=O)OCC(CCCCCCCC)CCCCCCCC)CCN(CCO)C1CC(c2ccccc2)C1` (stereo not drawn) [Compound 76], in data set [1], the polydispersity is 0.096 and the size nm is 54.94 nm. In data set [2], the “Expression at 6 h (μg/ml)” value was “C (≥0.1 and <1)”. Moreover, the “Encapsulation Efficiency” value in data set [3] stood at 91.71%.

In data set [1], `CCCCCCCCC(CCCCCC)CC(=O)NCCCCCN(CCCCCOC(=O)CC(CCCCCC)CCCCCCCC)CCN(CCO)C1CCCC1` (stereo not drawn) [Compound 130] gave a polydispersity of 0.097 and a size nm of 79.92 nm. Besides, the “Expression at 6 h (μg/ml)” value in data set [2] is reported as “A (≥2)”. Further, the “Encapsulation Efficiency” value in data set [3] was determined as 92.50%.

In data set [1], `CCCCCCCCC(CCCCCC)COC(=O)CCCCCN(CCCCCC(=O)OCC(CCCCCC)CCCCCCCC)C1CCN(CCO)CC1` (stereo not drawn) [Compound 98] registered a polydispersity of 0.105 and a size nm of 86.23 nm. The “Expression at 6 h (μg/ml)” value in data set [2] is “D (<0.1)”. Also, in data set [3], the “Encapsulation Efficiency” value was 97.6%.

In data set [1], `CCCCCCCCC(CCCCCC)C(CCC)OC(=O)CCCCCN(CCCCCC(=O)OC(CCC)C(CCCCCC)CCCCCCCC)CCN(CCO)C1CCC1` (stereo not drawn) [Compound 40] displayed a polydispersity of 0.081 and a size nm of 66.39 nm. In data set [2], the “Expression at 6 h (μg/ml)” value was “C (≥0.1 and <1)”. Moreover, the “Encapsulation Efficiency” value in data set [3] is 99.2%.

In data set [1], `CCCCCCCCC(CCCCCC)CNC(=O)CCCCCN(CCCCCC(=O)OCC(CCCCCC)CCCCCCCC)CCN(CCO)C1CCCC1` (stereo not drawn) [Compound 126] displayed a polydispersity of 0.101 and a size nm of 78.17 nm. Also, the “Expression at 6 h (μg/ml)” value in data set [2] is listed as “A (≥2)”. For the same molecule, in data set [3], the “Encapsulation Efficiency” value is 100.10%.

In data set [1], `CCCCCCCCC(CCCCCC)COC(=O)CCCCCC(CCCCCC(=O)OCC(CCCCCC)CCCCCCCC)CN(CCO)C1CCCCCCC1` (stereo not drawn) [Compound 17] had a polydispersity of 0.209 and a size nm of 57.6 nm. Also, the “Expression at 6 h (μg/ml)” value in data set [2] was “D (<0.1)”. Besides, the “Encapsulation Efficiency” value in data set [3] is 18.18%.

In data set [1], `CCCCCCCCCCC(CCCCCC)COC(=O)CCCCCCN(CCCCCCC(=O)OCC(CCCCCC)CCCCCCCCCC)CCN(CCO)C1CCC1` (stereo not drawn) [Compound 43] gave a polydispersity of 0.068 and a size nm of 74.8 nm. In addition, the “Expression at 6 h (μg/ml)” value in data set [2] was “B (≥1 and <2)”. Also, in data set [3], the “Encapsulation Efficiency” value was 97.3%.

In data set [1], `CCCCCCCCC(CCCCCC)CNC(=O)CCCCCN(CCCCCC(=O)NCC(CCCCCC)CCCCCCCC)CCN(CCO)C1CCCCC1` (stereo not drawn) [Compound 129] returned a polydispersity of 0.131 and a size nm of 63.13 nm. Besides, in data set [2], the “Expression at 6 h (μg/ml)” value is on record as “A (≥2)”. Also, the “Encapsulation Efficiency” value in data set [3] was 91.20%.

In data set [1], `CCCCCCCCC(CCCCCCCC)COC(=O)COCCOCCN(CCOCCOCC(=O)OCC(CCCCCCCC)CCCCCCCC)CCN(CCO)C1CCC1` [Compound 103] yielded a polydispersity of 0.054 and a size nm of 67.57 nm. Moreover, in data set [2], the “Expression at 6 h (μg/ml)” value was “C (≥0.1 and <1)”. Further, the “Encapsulation Efficiency” value in data set [3] was found to be 94.41%.

In the case of `CCCCCCCCC(CCCCCC)COC(=O)CCCCCN(CCCCCC(=O)OCC(CCCCCC)CCCCCCCC)CCN(CCCCC)C1CCC(O)CC1` (stereo not drawn) [Compound 61], in data set [1], the polydispersity is on record as 0.087 and the size nm was 65.04 nm. Besides, the “Expression at 6 h (μg/ml)” value in data set [2] was “A (≥2)”. In data set [3], the “Encapsulation Efficiency” value is reported as 83.4%.

For the molecule `CCCCCCCCCCC(CCCCCCCCCC)COC(=O)CCCCCN(CCCCCC(=O)OCC(CCCCCCCCCC)CCCCCCCCCC)CCN(CCO)C1CCC1` [Compound 52], in data set [1], the polydispersity amounted to 0.054 and the size nm came out at 69.18 nm. For the same molecule, the “Expression at 6 h (μg/ml)” value in data set [2] is recorded as “A (≥2)”. In data set [3], the “Encapsulation Efficiency” value came to 95.70%.

In data set [1], `CCCCCCCCC(CCCCCC)CC(=O)COCCCCN(CCCCCOC(=O)CC(CCCCCC)CCCCCCCC)CCN(CCO)C1CCCCC1` (stereo not drawn) [Compound 26] came in with a polydispersity of 0.125 and a size nm of 55.51 nm. The “Expression at 6 h (μg/ml)” value in data set [2] was “C (≥0.1 and <1)”. Also, the “Encapsulation Efficiency” value in data set [3] was determined as 96.7%.

In data set [1], `CCCCCCCCC(CCCCCC)COC(=O)CCCCCN(CCCCCC(=O)OCC(CCCCCC)CCCCCCCC)CCN(C)C1CCC(O)CC1` (stereo not drawn) [Compound 54] yielded a polydispersity of 0.051 and a size nm of 102.7 nm. Further, the “Expression at 6 h (μg/ml)” value in data set [2] is “D (<0.1)”. The “Encapsulation Efficiency” value in data set [3] was determined as 97.2%.

Take `CCCCCCCCC(CCCCCC)CNC(=O)CCCCCN(CCCCCC(=O)OCC(CCCCCC)CCCCCCCC)CCN(CCO)C1CCCCCC1` (stereo not drawn) [Compound 128]: in data set [1], the polydispersity was determined as 0.107 and the size nm is 79.73 nm. In data set [2], the “Expression at 6 h (μg/ml)” value was “A (≥2)”. Also, the “Encapsulation Efficiency” value in data set [3] turned out to be 86.10%.

On to `CCCCCCCCC(CCCCCC)COC(=O)CCCCCN(CCCCCC(=O)OCC(CCCCCC)CCCCCCCC)CCN1CC(O)C1` (stereo not drawn) [Compound 97], for which, in data set [1], the polydispersity is listed as 0.204 and the size nm was found to be 66.69 nm. Besides, in data set [2], the “Expression at 6 h (μg/ml)” value is “D (<0.1)”. For the same molecule, in data set [3], the “Encapsulation Efficiency” value is 96.8%.

As to `CCCCCCCCC(CCCCCC)COC(=O)CCCCCN(CCCCCC(=O)OCC(CCCCCC)CCCCCCCC)CCN1CCC(O)C1` (stereo not drawn) [Compound 95], in data set [1], the polydispersity turned out to be 0.285 and the size nm is reported as 82.43 nm. Further, in data set [2], the “Expression at 6 h (μg/ml)” value was “D (<0.1)”. Further, the “Encapsulation Efficiency” value in data set [3] is 97.2%.

In data set [1], `CCCCCCCCC(CCCCCC)CNC(=O)NCCCCN(CCCCNC(=O)NCC(CCCCCC)CCCCCCCC)CCN(CCO)C1CCC1` (stereo not drawn) [Compound 121] returned a polydispersity of 0.134 and a size nm of 71.02 nm. For the same molecule, the “Expression at 6 h (μg/ml)” value in data set [2] was “B (≥1 and <2)”. For the same molecule, in data set [3], the “Encapsulation Efficiency” value is listed as 94.5%.

Take `CCCCCCCCC(CCCCCCCC)COC(=O)CCCCCN(CCCCCC(=O)OCC(CCCCCCCC)CCCCCCCC)CCN(CCC)C1CCCCC1O` (stereo not drawn) [Compound 69]: in data set [1], the polydispersity was determined as 0.06 and the size nm turned out to be 58.74 nm. In data set [2], the “Expression at 6 h (μg/ml)” value is “D (<0.1)”. The “Encapsulation Efficiency” value in data set [3] is listed as 78.3%.
